Experimental findings from patent US20230242582A1, “NOVEL ALPHA-HELICAL DOUBLE-SIDED CELL PENETRATING PEPTIDE AND USE THEREOF” (CAMP THERAPEUTICS INC., priority 2020, published 2023) are described below.

Like-named read-outs stand apart in the source and are kept apart here. Residues, ends and D or L forms follow the SMILES beside them.

Test [1] has as its system IL-2. The experiment in a line: Decrease of extracellularly secreted IL-2 in Jurkat cells, ELISA. Type of test: cell-based. The following applies: CsA complex with diLR10 versus CsA only. The procedure: The hydrophobic drug cyclosporine (CsA) was mixed with a peptide and incubated at room temperature for 20 minutes to create a complex with the hydrophobic drug. Then, Jurkat cells (1.0×10^4 cells/well) were treated with the complex for 4.5 hours. An amount of extracellularly secreted IL-2 was measured by an ELISA method to identify, through IC50 values, whether an anti-inflammatory effect caused by CsA, which corresponded to a relative decrease in IL-2, was enhanced by the cell-penetrating peptide diLR10.
For orientation: An ELISA detects its analyte on a solid surface through an enzyme-linked reagent.

Test [2] deals with HeLa cells. The experiment in a line: Cell-penetrating ability of fluorescently labeled dimeric peptides, flow cytometry. The test is classed as cell-based, human. The following applies: at 62.5 nM, FIG. 6A. On the procedure:
During preparation of CPPs in dimeric form shown in Tables 1 to 3, one monomer thereof was prepared in a form where 5-TAMRA fluorescence was attached to the N-terminus, instead of acetyl. A monomer with acetyl and a monomer with 5-TAMRA fluorescence were mixed in a molar ratio of 1:1, and subjected to an oxidation condition in air to produce a dimeric form in which only one fluorescence was labeled per dimer molecule. Then, cell-penetrating ability of each dimer was identified. Each fluorescently labeled peptide was used to treat HeLa cells (5×10^4 cells/well), which are human-derived cells, and a ratio of the number of cells with fluorescence to the total number of cells was obtained through flow cytometry.
FIGS. 4B to 4D illustrate results obtained by treating cells with respective dimers at the same concentration (62.5 nM), measuring fluorescence intensity of the cells by flow cytometry, and relatively comparing the fluorescence intensity.
Based on cell-penetrating ability and cytotoxicity of the dimeric peptides of the present disclosure, correlation therebetween was identified. Cytotoxicity (IC50^−1) and cell-penetrating ability of the respective peptides were identified at 62.5 nM according to the methods described in Examples 5 and 6, and then graphically represented.

Test [3] concerns HeLa cells. The experiment in a line: Cytotoxicity of dimeric peptides, WST-1 assay. Type of test: cell-based, human. The following applies: for ratio: IC50 relative to LK-3, HeLa cells. On the procedure:
Cytotoxicity was identified using WST-1 assay by treating HeLa cells with peptides in a 96-well plate (1×10^4 cells/well) for 24 hours.
(§1) Specifically, HeLa cells were cultured in DMEM at a condition of 37° C. with 5% CO2. The cells were respectively cultured in a cell culture plate, and then removed with trypsin. The cells were seeded at 1×10^4 cells per well in a 96-well plate. After 24 hours, the peptide was added to the media, and culture was performed again at a condition of 37° C. with 5% CO2 for 24 hours. 10 uL of WST-1 reagent was added per well, and reaction was allowed to proceed for 30 minutes at a condition of 37° C. with 5% CO2. Then, UV absorbance was measured at 450/700 nm with a 96-well plate reader.

Test [4] is described as follows: Intracellular delivery of CsA with fluorescence by non-covalent bonding with peptide. The following applies: FIG. 8. The test is classed as cell-based. The text has this:
For the peptides with various compositions of lysine and arginine, their intracellular delivery by non-covalent bonding with CsA was identified using CsA with fluorescence.

Test [5] concerns MDA-MB-231. Put plainly: IC50 of MTX in cell line MDA-MB-231. To be noted: Homo sapiens. Type of test: cell-based.
Test [6] deals with NIH-3T3. The experiment in a line: IC50 of MTX in cell line NIH-3T3. To be noted: Mus musculus, NIH3T3. The test is classed as cell-based.
In test [7] the test system is HeLa. The experiment in a line: IC50 of MTX in cell line HeLa. The test is classed as cell-based. The following applies: Homo sapiens.
Test [8] deals with MDA-MB-231 cells. The experiment in a line: Cytotoxicity of MTX-bound peptide, WST-1 assay. The test is classed as cell-based. On the procedure:
as §1
In order to identify a drug delivery effect of a peptide, a peptide in which methotrexate (MTX) is bound to the N-terminus of one monomer of a dimer was synthesized according to a known method (Kim et al. Biomacromolecules 2016).
MDA-MB-231 cells were seeded in a 96-well plate at a density of 2.5×10^3 cells/well, and treated with the MTX-bound peptide for 48 hours starting from the next day.
(In general: Tetrazolium assays rely on reduction of a dye to a coloured formazan, in cell work by metabolically active cells.)

What is called IC50 is the midpoint of a concentration-inhibition curve.

For `CC(=O)N[C@@H](CC(C)C)C(=O)N[C@H]1CSSC[C@@H](C(=O)N[C@@H](CCCNC(=N)N)C(N)=O)NC(=O)[C@H](CC(C)C)NC(=O)[C@H](CCCNC(=N)N)NC(=O)[C@H](CCCNC(=N)N)NC(=O)[C@H](CC(C)C)NC(=O)[C@H](CC(C)C)NC(=O)[C@H](CCCNC(=N)N)NC(=O)[C@@H](NC(=O)[C@H](CC(C)C)NC(C)=O)CSSC[C@@H](C(=O)N[C@@H](CCCNC(=N)N)C(N)=O)NC(=O)[C@H](CC(C)C)NC(=O)[C@H](CCCNC(=N)N)NC(=O)[C@H](CCCNC(=N)N)NC(=O)[C@H](CC(C)C)NC(=O)[C@H](CC(C)C)NC(=O)[C@H](CCCNC(=N)N)NC1=O` [diLR10] (HELM PEPTIDE1{[ac].L.C.R.L.L.R.R.L.C.R.[am]}|PEPTIDE2{[ac].L.C.R.L.L.R.R.L.C.R.[am]}$PEPTIDE1,PEPTIDE2,3:R3-10:R3|PEPTIDE1,PEPTIDE2,10:R3-3:R3$$$V2.0; bridges inferred), the “decrease of IC50 value” in test [1] is given as 21%. The “ratio of cell-penetrating ability to cytotoxicity (IC50^−1)” value in test [2] is reported as “low toxicity as compared with cell-penetrating ability”. In addition, in test [3] (HeLa cells), the “increase in IC50 value as compared with LK-3” value is “about 5 fold”. Besides, the ratio in test [3] is 4.26.

In the case of “diLR10^R3K: dimer of monomer LR10^R3K, Ac-LCKLLRRLCR-NH2 (SEQ ID NO 30) (also: dimer of two monomers linked by interchain disulfide bonds)”, the “intracellular delivery ability for CsA” value in test [4] is “best intracellular delivery ability for CsA”.

As for `CN(Cc1cnc2nc(N)nc(N)c2n1)c1ccc(C(=O)N[C@@H](CCC(=O)O)C(=O)O)cc1` [MTX, methotrexate], the IC50 in test [5] was 970 nM; in test [6] it was 37 nM; in test [7] it was about 31 nM; in test [8] (Homo sapiens, 48 hours, MTX bound to N-terminus of one monomer of the dimer, MTX column = MTX alone, read-out: IC50 of MTX-bound peptide) it was 972 nM.

For `CC(=O)N[C@@H](CC(C)C)C(=O)N[C@@H](CCCCN)C(=O)N[C@@H](CCCCN)C(=O)N[C@@H](CC(C)C)C(=O)N[C@H]1CSSC[C@@H](C(=O)N[C@@H](CCCCN)C(=O)N[C@@H](CC(C)C)C(=O)N[C@@H](C)C(=O)NCC(N)=O)NC(=O)[C@H](CC(C)C)NC(=O)[C@H](CCCCN)NC(=O)[C@H](CCCCN)NC(=O)[C@H](CC(C)C)NC(=O)[C@H](CC(C)C)NC(=O)[C@H](CCCCN)NC(=O)[C@@H](NC(=O)[C@H](CC(C)C)NC(=O)[C@H](CCCCN)NC(=O)[C@H](CCCCN)NC(=O)[C@H](CC(C)C)NC(C)=O)CSSC[C@@H](C(=O)N[C@@H](CCCCN)C(=O)N[C@@H](CC(C)C)C(=O)N[C@@H](C)C(=O)NCC(N)=O)NC(=O)[C@H](CC(C)C)NC(=O)[C@H](CCCCN)NC(=O)[C@H](CCCCN)NC(=O)[C@H](CC(C)C)NC(=O)[C@H](CC(C)C)NC(=O)[C@H](CCCCN)NC1=O` [LK-3, reference compound] (HELM PEPTIDE1{[ac].L.K.K.L.C.K.L.L.K.K.L.C.K.L.A.G.[am]}|PEPTIDE2{[ac].L.K.K.L.C.K.L.L.K.K.L.C.K.L.A.G.[am]}$PEPTIDE1,PEPTIDE2,6:R3-13:R3|PEPTIDE1,PEPTIDE2,13:R3-6:R3$$$V2.0; bridges inferred), the “ratio of cell-penetrating ability to cytotoxicity (IC50^−1)” value in test [2] is “about 130,000”. The ratio in test [3] stood at 1.00.

For the compound `CC(=O)N[C@@H](CC(C)C)C(=O)N[C@H]1CSSC[C@@H](C(=O)N[C@@H](CCCCN)C(N)=O)NC(=O)[C@H](CC(C)C)NC(=O)[C@H](CCCCN)NC(=O)[C@H](CCCCN)NC(=O)[C@H](CC(C)C)NC(=O)[C@H](CC(C)C)NC(=O)[C@H](CCCCN)NC(=O)[C@@H](NC(=O)[C@H](CC(C)C)NC(C)=O)CSSC[C@@H](C(=O)N[C@@H](CCCCN)C(N)=O)NC(=O)[C@H](CC(C)C)NC(=O)[C@H](CCCCN)NC(=O)[C@H](CCCCN)NC(=O)[C@H](CC(C)C)NC(=O)[C@H](CC(C)C)NC(=O)[C@H](CCCCN)NC1=O` [diLK10] (HELM PEPTIDE1{[ac].L.C.K.L.L.K.K.L.C.K.[am]}|PEPTIDE2{[ac].L.C.K.L.L.K.K.L.C.K.[am]}$PEPTIDE1,PEPTIDE2,3:R3-10:R3|PEPTIDE1,PEPTIDE2,10:R3-3:R3$$$V2.0), the IC50 in test [8] (48 hours, MTX bound to N-terminus of one monomer of the dimer, MTX column = MTX alone, read-out: IC50 of MTX-bound peptide) is 45.9 nM; in test [8] (peptide itself, without MTX, read-out: IC50) it was about 13700 nM; in test [3] (HeLa cells, WST-1, peptide treatment 24 hours), 12400 nM. Further, the ratio in test [3] was determined as 2.79.
